Assay results from the supplement of paper PMC10307832.

Legend:
Assay in all cases: relative viability (nuclei count vs DMSO), 5 days (fraction); higher = more cells survive
JZL-184 + Trametinib = compound: C1CN(CCC1C(C2=CC3=C(C=C2)OCO3)(C4=CC5=C(C=C4)OCO5)O)C(=O)OC6=CC=C(C=C6)[N+](=O)[O-] [JZL-184] + CC(=O)Nc1cccc(-n2c(=O)n(C3CC3)c(=O)c3c(Nc4ccc(I)cc4F)n(C)c(=O)c(C)c32)c1 [Trametinib] (partner 0.02 µM)
Procedure, shortened: (§1)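 Cells from lung cancer lines were seeded into 1536-well plates and, one day later, dosed by pin tool. Treatments were either a single drug or a fixed dose of an anchor drug with five library-drug doses (not always all listed) in √10 steps. After 5 days, nuclei were stained in a one-step fixation (final 0.05% Triton X-100, 1% formaldehyde, 1 ug/ml Hoechst) and counted on 4× images, and relative viability is the treated-to-vehicle nuclei ratio, as the median of duplicate plates.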

JZL-184 + Navitoclax = compound: C1CN(CCC1C(C2=CC3=C(C=C2)OCO3)(C4=CC5=C(C=C4)OCO5)O)C(=O)OC6=CC=C(C=C6)[N+](=O)[O-] [JZL-184] + CC1(C)CCC(c2ccc(Cl)cc2)=C(CN2CCN(c3ccc(C(=O)NS(=O)(=O)c4ccc(N[C@H](CCN5CCOCC5)CSc5ccccc5)c(S(=O)(=O)C(F)(F)F)c4)cc3)CC2)C1 [Navitoclax] (partner 0.5 µM)
Procedure, shortened: as §1

JZL-184 + OSI-027 = compound: C1CN(CCC1C(C2=CC3=C(C=C2)OCO3)(C4=CC5=C(C=C4)OCO5)O)C(=O)OC6=CC=C(C=C6)[N+](=O)[O-] [JZL-184] + COc1cccc2cc(-c3nc([C@H]4CC[C@H](C(=O)O)CC4)n4ncnc(N)c34)[nH]c12 [OSI-027] (partner 0.5 µM)
Procedure, shortened: as §1

JZL-184 + Tozasertib = compound: C1CN(CCC1C(C2=CC3=C(C=C2)OCO3)(C4=CC5=C(C=C4)OCO5)O)C(=O)OC6=CC=C(C=C6)[N+](=O)[O-] [JZL-184] + Cc1cc(Nc2cc(N3CCN(C)CC3)nc(Sc3ccc(NC(=O)C4CC4)cc3)n2)n[nH]1 [Tozasertib] (partner 0.1 µM)
Procedure, shortened: as §1

JZL-184 + Olaparib = compound: C1CN(CCC1C(C2=CC3=C(C=C2)OCO3)(C4=CC5=C(C=C4)OCO5)O)C(=O)OC6=CC=C(C=C6)[N+](=O)[O-] [JZL-184] + O=C(c1cc(Cc2n[nH]c(=O)c3ccccc23)ccc1F)N1CCN(C(=O)C2CC2)CC1 [Olaparib] (partner 8 µM)
Procedure, shortened: as §1

NCI-H596
relative viability (JZL-184 + Trametinib; first compound 0.04 µM): 0.86 | relative viability (JZL-184 + Trametinib; first compound 0.4 µM): 0.76 | relative viability (JZL-184 + Trametinib; first compound 1.265 µM): 0.801 | relative viability (JZL-184 + Trametinib; first compound 4 µM): 0.767 | relative viability (JZL-184 + Navitoclax; first compound 0.04 µM): 0.936 | relative viability (JZL-184 + Navitoclax; first compound 0.4 µM): 0.993 | relative viability (JZL-184 + Navitoclax; first compound 1.265 µM): 0.93 | relative viability (JZL-184 + Navitoclax; first compound 4 µM): 0.791 | relative viability (JZL-184 + OSI-027; first compound 0.04 µM): 0.749 | relative viability (JZL-184 + OSI-027; first compound 0.4 µM): 0.591 | relative viability (JZL-184 + OSI-027; first compound 1.265 µM): 0.71 | relative viability (JZL-184 + OSI-027; first compound 4 µM): 0.696 | relative viability (JZL-184 + Tozasertib; first compound 0.04 µM): 0.878 | relative viability (JZL-184 + Tozasertib; first compound 0.4 µM): 0.932 | relative viability (JZL-184 + Tozasertib; first compound 1.265 µM): 0.861 | relative viability (JZL-184 + Tozasertib; first compound 4 µM): 0.931 | relative viability (JZL-184 + Olaparib; first compound 0.04 µM): 0.669 | relative viability (JZL-184 + Olaparib; first compound 0.4 µM): 0.728 | relative viability (JZL-184 + Olaparib; first compound 1.265 µM): 0.721 | relative viability (JZL-184 + Olaparib; first compound 4 µM): 0.753

NCI-H647
relative viability (JZL-184 + Trametinib; first compound 0.04 µM): 0.455 | relative viability (JZL-184 + Trametinib; first compound 0.4 µM): 0.41 | relative viability (JZL-184 + Trametinib; first compound 1.265 µM): 0.562 | relative viability (JZL-184 + Trametinib; first compound 4 µM): 0.504 | relative viability (JZL-184 + Navitoclax; first compound 0.04 µM): 1.24 | relative viability (JZL-184 + Navitoclax; first compound 0.4 µM): 1.12 | relative viability (JZL-184 + Navitoclax; first compound 1.265 µM): 1.12 | relative viability (JZL-184 + Navitoclax; first compound 4 µM): 1.07 | relative viability (JZL-184 + OSI-027; first compound 0.04 µM): 0.625 | relative viability (JZL-184 + OSI-027; first compound 0.4 µM): 0.698 | relative viability (JZL-184 + OSI-027; first compound 1.265 µM): 0.75 | relative viability (JZL-184 + OSI-027; first compound 4 µM): 0.51 | relative viability (JZL-184 + Tozasertib; first compound 0.04 µM): 0.388 | relative viability (JZL-184 + Tozasertib; first compound 0.4 µM): 0.425 | relative viability (JZL-184 + Tozasertib; first compound 1.265 µM): 0.46 | relative viability (JZL-184 + Tozasertib; first compound 4 µM): 0.252 | relative viability (JZL-184 + Olaparib; first compound 0.04 µM): 0.654 | relative viability (JZL-184 + Olaparib; first compound 0.4 µM): 0.481 | relative viability (JZL-184 + Olaparib; first compound 1.265 µM): 0.471 | relative viability (JZL-184 + Olaparib; first compound 4 µM): 0.564

NCI-H727
relative viability (JZL-184 + Trametinib; first compound 0.04 µM): 0.416 | relative viability (JZL-184 + Trametinib; first compound 0.4 µM): 0.366 | relative viability (JZL-184 + Trametinib; first compound 1.265 µM): 0.414 | relative viability (JZL-184 + Trametinib; first compound 4 µM): 0.39 | relative viability (JZL-184 + Navitoclax; first compound 0.04 µM): 0.383 | relative viability (JZL-184 + Navitoclax; first compound 0.4 µM): 0.455 | relative viability (JZL-184 + Navitoclax; first compound 1.265 µM): 0.543 | relative viability (JZL-184 + Navitoclax; first compound 4 µM): 0.422 | relative viability (JZL-184 + OSI-027; first compound 0.04 µM): 0.665 | relative viability (JZL-184 + OSI-027; first compound 0.4 µM): 0.592 | relative viability (JZL-184 + OSI-027; first compound 1.265 µM): 0.591 | relative viability (JZL-184 + OSI-027; first compound 4 µM): 0.582 | relative viability (JZL-184 + Tozasertib; first compound 0.04 µM): 0.594 | relative viability (JZL-184 + Tozasertib; first compound 0.4 µM): 0.568 | relative viability (JZL-184 + Tozasertib; first compound 1.265 µM): 0.777 | relative viability (JZL-184 + Tozasertib; first compound 4 µM): 0.583 | relative viability (JZL-184 + Olaparib; first compound 0.04 µM): 0.661 | relative viability (JZL-184 + Olaparib; first compound 0.4 µM): 0.723 | relative viability (JZL-184 + Olaparib; first compound 1.265 µM): 0.747 | relative viability (JZL-184 + Olaparib; first compound 4 µM): 0.552

NCI-H838
relative viability (JZL-184 + Trametinib; first compound 0.04 µM): 0.65 | relative viability (JZL-184 + Trametinib; first compound 0.4 µM): 0.569 | relative viability (JZL-184 + Trametinib; first compound 1.265 µM): 0.543 | relative viability (JZL-184 + Trametinib; first compound 4 µM): 0.477 | relative viability (JZL-184 + Navitoclax; first compound 0.04 µM): 1.39 | relative viability (JZL-184 + Navitoclax; first compound 0.4 µM): 1.22 | relative viability (JZL-184 + Navitoclax; first compound 1.265 µM): 1.21 | relative viability (JZL-184 + Navitoclax; first compound 4 µM): 1.11 | relative viability (JZL-184 + OSI-027; first compound 0.04 µM): 0.434 | relative viability (JZL-184 + OSI-027; first compound 0.4 µM): 0.368 | relative viability (JZL-184 + OSI-027; first compound 1.265 µM): 0.441 | relative viability (JZL-184 + OSI-027; first compound 4 µM): 0.389 | relative viability (JZL-184 + Tozasertib; first compound 0.04 µM): 0.285 | relative viability (JZL-184 + Tozasertib; first compound 0.4 µM): 0.299 | relative viability (JZL-184 + Tozasertib; first compound 1.265 µM): 0.294 | relative viability (JZL-184 + Tozasertib; first compound 4 µM): 0.238 | relative viability (JZL-184 + Olaparib; first compound 0.04 µM): 0.994 | relative viability (JZL-184 + Olaparib; first compound 0.4 µM): 0.737 | relative viability (JZL-184 + Olaparib; first compound 1.265 µM): 0.766 | relative viability (JZL-184 + Olaparib; first compound 4 µM): 0.722

NCI-H1355
relative viability (JZL-184 + Trametinib; first compound 0.04 µM): 0.44 | relative viability (JZL-184 + Trametinib; first compound 0.4 µM): 0.403 | relative viability (JZL-184 + Trametinib; first compound 1.265 µM): 0.423 | relative viability (JZL-184 + Trametinib; first compound 4 µM): 0.38 | relative viability (JZL-184 + Navitoclax; first compound 0.04 µM): 0.848 | relative viability (JZL-184 + Navitoclax; first compound 0.4 µM): 0.925 | relative viability (JZL-184 + Navitoclax; first compound 1.265 µM): 1.08 | relative viability (JZL-184 + Navitoclax; first compound 4 µM): 0.861 | relative viability (JZL-184 + OSI-027; first compound 0.04 µM): 0.393 | relative viability (JZL-184 + OSI-027; first compound 0.4 µM): 0.421 | relative viability (JZL-184 + OSI-027; first compound 1.265 µM): 0.494 | relative viability (JZL-184 + OSI-027; first compound 4 µM): 0.386 | relative viability (JZL-184 + Tozasertib; first compound 0.04 µM): 0.589 | relative viability (JZL-184 + Tozasertib; first compound 0.4 µM): 0.515 | relative viability (JZL-184 + Tozasertib; first compound 1.265 µM): 0.612 | relative viability (JZL-184 + Tozasertib; first compound 4 µM): 0.433 | relative viability (JZL-184 + Olaparib; first compound 0.04 µM): 0.775 | relative viability (JZL-184 + Olaparib; first compound 0.4 µM): 0.708 | relative viability (JZL-184 + Olaparib; first compound 1.265 µM): 0.78 | relative viability (JZL-184 + Olaparib; first compound 4 µM): 0.707

NCI-H1395
relative viability (JZL-184 + Trametinib; first compound 0.04 µM): 1.09 | relative viability (JZL-184 + Trametinib; first compound 0.4 µM): 0.996 | relative viability (JZL-184 + Trametinib; first compound 1.265 µM): 1.01 | relative viability (JZL-184 + Trametinib; first compound 4 µM): 0.875 | relative viability (JZL-184 + Navitoclax; first compound 0.04 µM): 1.49 | relative viability (JZL-184 + Navitoclax; first compound 0.4 µM): 1.22 | relative viability (JZL-184 + Navitoclax; first compound 1.265 µM): 1.18 | relative viability (JZL-184 + Navitoclax; first compound 4 µM): 1.02 | relative viability (JZL-184 + OSI-027; first compound 0.04 µM): 0.623 | relative viability (JZL-184 + OSI-027; first compound 0.4 µM): 0.519 | relative viability (JZL-184 + OSI-027; first compound 1.265 µM): 0.69 | relative viability (JZL-184 + OSI-027; first compound 4 µM): 0.581 | relative viability (JZL-184 + Tozasertib; first compound 0.04 µM): 0.684 | relative viability (JZL-184 + Tozasertib; first compound 0.4 µM): 0.738 | relative viability (JZL-184 + Tozasertib; first compound 1.265 µM): 0.827 | relative viability (JZL-184 + Tozasertib; first compound 4 µM): 0.748 | relative viability (JZL-184 + Olaparib; first compound 0.04 µM): 0.486 | relative viability (JZL-184 + Olaparib; first compound 0.4 µM): 0.458 | relative viability (JZL-184 + Olaparib; first compound 1.265 µM): 0.407 | relative viability (JZL-184 + Olaparib; first compound 4 µM): 0.444

NCI-H1437
relative viability (JZL-184 + Trametinib; first compound 0.04 µM): 0.495 | relative viability (JZL-184 + Trametinib; first compound 0.4 µM): 0.482 | relative viability (JZL-184 + Trametinib; first compound 1.265 µM): 0.479 | relative viability (JZL-184 + Trametinib; first compound 4 µM): 0.445 | relative viability (JZL-184 + Navitoclax; first compound 0.04 µM): 1.1 | relative viability (JZL-184 + Navitoclax; first compound 0.4 µM): 0.959 | relative viability (JZL-184 + Navitoclax; first compound 1.265 µM): 0.965 | relative viability (JZL-184 + Navitoclax; first compound 4 µM): 1.06 | relative viability (JZL-184 + OSI-027; first compound 0.04 µM): 0.88 | relative viability (JZL-184 + OSI-027; first compound 0.4 µM): 0.849 | relative viability (JZL-184 + OSI-027; first compound 1.265 µM): 0.849 | relative viability (JZL-184 + OSI-027; first compound 4 µM): 0.866 | relative viability (JZL-184 + Tozasertib; first compound 0.04 µM): 0.395 | relative viability (JZL-184 + Tozasertib; first compound 0.4 µM): 0.398 | relative viability (JZL-184 + Tozasertib; first compound 1.265 µM): 0.397 | relative viability (JZL-184 + Tozasertib; first compound 4 µM): 0.402 | relative viability (JZL-184 + Olaparib; first compound 0.04 µM): 0.665 | relative viability (JZL-184 + Olaparib; first compound 0.4 µM): 0.61 | relative viability (JZL-184 + Olaparib; first compound 1.265 µM): 0.632 | relative viability (JZL-184 + Olaparib; first compound 4 µM): 0.636
